This is an account of results in US9821035B2, “Preparation for preventing or treating type I diabetes” (REGIMMUNE CORPORATION, priority 2012, dated 2017).

The structures appear in SMILES notation.

Common to all, as to type: cell-based
The subject of one experiment is IL-2. The experiment can be described thus: Cytokine production in culture supernatant of spleen cells from drug-administered NOD mice: IL-2. The settings on record: spleen cells of dosed NOD mice, cultured four days. The method, then:
(§1) 1-5. Analysis of Insulin-B-Peptide-Specific Cell Proliferation of Treg Cells and Measurement of Cytokine Production To NOD mice (NOD/ShiJcl, CLEA Japan Inc., Tokyo, Japan), which are animals representing a spontaneous model for type I diabetes, was intraperitoneally administered 100 μl of the sample for administration, twice a week between the age of 5 to 10 weeks, which was a period prior to the onset of type I diabetes. The spleen was removed from 13-week-old mice and then spleen cells were prepared and subjected to cell culture. Groups receiving test drugs were the following five groups: 1) a group receiving no drug (i.e., a group receiving physiological saline), 2) a group receiving the insulin-B-peptide-incorporated α-GalCer-liposome, 3) a group receiving the insulin-B-peptide-incorporated liposome, 4) a group receiving the α-GalCer-liposome, and 5) a group receiving the α-GalCer solution, with N=2 to 3 animals per group. After preparation of spleen cells from the animals of each of the groups, spleen cells were loaded with CFSE (carboxyfluorescein diacetate succinimidyl ester), a dye used in cell proliferation assays, and subjected to reaction, followed by washing the cells to remove the dye, in regular procedures. […] The concentrations of IL-2 and IL-10 in the culture supernatant were also measured.

The subject of a further experiment is IL-10. The experiment can be described thus: Cytokine production in culture supernatant of spleen cells from drug-administered NOD mice: IL-10. Particulars: spleen cells of dosed NOD mice, cultured four days. The method, then:
as §1

The subject of experiment [1] is CD4(+) Foxp3(+) cells (Treg cells). The experiment can be described thus: Insulin-B-peptide-specific proliferation of Treg cells, CFSE/FACS on spleen cells from drug-administered NOD mice (Example 3). Particulars: FIG. 3B. The method, then:
as §1

Regarding `CCCCCCCCCCCCCCCCCCCCCCCCCC(=O)N[C@@H](CO[C@H]1O[C@H](CO)[C@H](O)[C@H](O)[C@H]1O)[C@H](O)[C@H](O)CCCCCCCCCCCCCC` [α-GalCer solution, (2S,3S,4R)-1-O-(α-D-galactopyranosyl)-2-hexacosanoylamino-1,3,4-octadecanetriol], the “Concentration of IL-2 in culture supernatant” value with IL-2 is 0.9 pg/mL. Further, in the experiment on IL-10, the “Concentration of IL-10 in culture supernatant” value is 1.3 pg/mL. The “ratio of the percentage of proliferated cells when no antigen was added to the percentage when the insulin B peptide was added” value in experiment [1] stood at 1.04.
